Measurements published in patent US20080292584A1 (priority 2005, published 2008).
Where “and” joins values, the source holds several entries; their conditions need not be identical. Equal entries are not always repeated. Where two headings read alike, the source gives them in different places.

Columns and labels:
CYP2E1 = CYP2E1 (Homo sapiens, UniProt P05181); details: both, microsomes, 1 h, 0.75 μM, pH 7.4
Procedure: (§6) Human liver microsomes pooled from 15 individuals (male and female) (Pool HMMC-PL020; CellzDirect, Inc., In Vitro Products and Services Division) were used in some experiments of this study.
(§7) % Turnover=100−{[TA(final)]/[mean of TA(0 min)]}×100,
(§8) % Inhibition of Turnover=100{1−([TA(0 min)]−[TA(final-inhibitor)])/([TA(0 min)]−[TA(final-no inhibitor)])}.
(§9) The inhibitors or vehicle control were incubated with the pooled human liver microsomes (1 mg/mL) and NADPH (1 mM) in 0.1 M phosphate buffer, pH 7.4. […] Incubations were conducted in triplicate and terminated by addition of organic solvent. Samples were extracted and analyzed by LC-MS/MS as described above.

CYP3A4 = CYP3A4 (Homo sapiens, UniProt P08684); experiment: Induction/inhibition of CYP3A4 activity in cryopreserved human hepatocytes (testosterone)
Excerpt: (§1) Hepatocytes from three human donors were obtained from a cryopreserved hepatocyte bank (In Vitro Technologies, Inc., USA). After thawing, viable hepatocytes were transferred to collagen-coated 48-well plates for attachment in plating medium (DMEM stock (Dulbecco's modified Eagle's medium, supplemented with bovine serum albumin, fructose, N-(2-hydroxyethyl)piperazine-N′-(2-ethanesulfonate) (HEPES), and sodium bicarbonate), supplemented with antibiotics, bovine serum, hydrocortisone, insulin and minimum essential medium (MEM) nonessential amino acids). After attachment to the collagen matrix, plating medium was replaced with sandwich medium (plating medium supplemented with VITROGEN) and incubated until use.
(§2) The supplemented KHB was replaced with 150 μL supplemented KHB containing the appropriate isoform-selective substrate and incubated for 4 hrs prior to termination by adding 150 μL ice-cold methanol, except for the CYP2C8 incubations which were terminated by adding 150 μL acetonitrile.
(§3) All substrates were dissolved in acetonitrile.
(§4) Replicate trials and controls were performed. […] Additionally, reference control samples were included to evaluate inducibility of CYP2B6, CYP2C9, and CYP2C19 in the test system.
(§5) Mean specific activity values with associated p-values≦0.05 were deemed to be statistically significant.

CYP2C8 = molecular target: T1, CYP2C8 (Homo sapiens, UniProt P10632); details: both, pH 7.4; for Mean Conc.: 60 min; for % Turnover Mean: microsomes, 1 h
T1 sequence (P10632 1-490): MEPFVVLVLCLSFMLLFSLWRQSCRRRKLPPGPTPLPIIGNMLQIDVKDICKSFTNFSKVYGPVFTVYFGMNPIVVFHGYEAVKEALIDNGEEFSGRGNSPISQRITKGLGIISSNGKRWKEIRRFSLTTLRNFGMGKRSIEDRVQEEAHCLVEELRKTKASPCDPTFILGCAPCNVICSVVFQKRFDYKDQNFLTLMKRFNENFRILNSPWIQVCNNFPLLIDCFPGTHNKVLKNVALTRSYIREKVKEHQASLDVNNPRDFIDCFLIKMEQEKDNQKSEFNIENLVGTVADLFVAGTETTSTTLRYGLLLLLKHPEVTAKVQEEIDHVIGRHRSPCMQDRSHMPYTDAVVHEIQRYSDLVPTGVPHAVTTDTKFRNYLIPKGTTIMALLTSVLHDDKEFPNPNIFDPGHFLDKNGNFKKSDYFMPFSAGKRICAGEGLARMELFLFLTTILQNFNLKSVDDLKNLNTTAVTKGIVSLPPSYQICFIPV
Procedure: as §6, §7, §8, §9

CYP2D6 = CYP2D6 (Homo sapiens, UniProt P10635); experiment: Induction/inhibition of CYP2D6 activity in cryopreserved human hepatocytes (dextromethorphan)
Excerpt: as §1, §2, §3, §4, §5

CYP2A6 = molecular target: T2, CYP2A6 (Homo sapiens, UniProt P11509); experiment: Metabolism of metaxalone by expressed recombinant human CYP2A6 at 5 or 20 pmol (Example 4); details: for % Turnover Mean / [metaxalone] Mean / % Turnover % / [metaxalone]: 60 min; for % Turnover % / [metaxalone]: single replicates
T2 sequence (P11509 1-494): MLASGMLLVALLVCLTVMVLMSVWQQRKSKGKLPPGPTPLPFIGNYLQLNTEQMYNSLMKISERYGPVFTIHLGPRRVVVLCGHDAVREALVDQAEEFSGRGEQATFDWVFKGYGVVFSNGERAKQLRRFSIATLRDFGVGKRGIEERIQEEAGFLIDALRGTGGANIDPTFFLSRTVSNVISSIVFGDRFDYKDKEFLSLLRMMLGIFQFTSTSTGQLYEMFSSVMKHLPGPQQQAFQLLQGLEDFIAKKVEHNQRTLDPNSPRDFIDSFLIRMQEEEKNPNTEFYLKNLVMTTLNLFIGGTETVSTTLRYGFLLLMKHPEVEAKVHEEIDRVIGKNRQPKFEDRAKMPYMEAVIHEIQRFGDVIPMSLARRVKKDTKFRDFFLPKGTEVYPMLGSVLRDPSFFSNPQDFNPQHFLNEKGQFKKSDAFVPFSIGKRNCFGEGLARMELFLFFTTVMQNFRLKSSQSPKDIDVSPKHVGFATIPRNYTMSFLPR

[1] = human, hepatocytes, 48 h, 40 μM
[2] = 0.75 μM metaxalone, 5 pmol cyp, listed as Metaxalone
[3] = 0.75 μM metaxalone, 20 pmol cyp
[4] = 0.75 μM metaxalone, 20 pmol cyp, listed as Metaxalone
[5] = 7.5 μM metaxalone, 5 pmol cyp, listed as Metaxalone
[6] = 7.5 μM metaxalone, 20 pmol cyp, listed as Metaxalone

CYP3A4, sequence (P08684 whole entry): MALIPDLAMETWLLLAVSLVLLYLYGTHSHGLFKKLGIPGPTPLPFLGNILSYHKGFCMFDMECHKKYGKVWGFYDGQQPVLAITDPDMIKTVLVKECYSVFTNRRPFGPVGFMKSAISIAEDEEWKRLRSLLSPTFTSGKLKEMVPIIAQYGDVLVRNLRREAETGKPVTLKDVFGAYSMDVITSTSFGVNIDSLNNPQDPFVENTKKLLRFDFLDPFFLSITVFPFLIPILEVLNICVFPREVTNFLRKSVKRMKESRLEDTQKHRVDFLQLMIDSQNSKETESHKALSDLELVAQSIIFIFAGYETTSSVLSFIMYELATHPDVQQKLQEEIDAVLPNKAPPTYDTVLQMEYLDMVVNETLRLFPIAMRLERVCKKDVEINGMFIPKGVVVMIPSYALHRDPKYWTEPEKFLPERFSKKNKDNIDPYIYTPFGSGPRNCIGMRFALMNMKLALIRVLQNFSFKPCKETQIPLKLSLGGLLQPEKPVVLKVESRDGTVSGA
CYP2D6, sequence (P10635 whole entry): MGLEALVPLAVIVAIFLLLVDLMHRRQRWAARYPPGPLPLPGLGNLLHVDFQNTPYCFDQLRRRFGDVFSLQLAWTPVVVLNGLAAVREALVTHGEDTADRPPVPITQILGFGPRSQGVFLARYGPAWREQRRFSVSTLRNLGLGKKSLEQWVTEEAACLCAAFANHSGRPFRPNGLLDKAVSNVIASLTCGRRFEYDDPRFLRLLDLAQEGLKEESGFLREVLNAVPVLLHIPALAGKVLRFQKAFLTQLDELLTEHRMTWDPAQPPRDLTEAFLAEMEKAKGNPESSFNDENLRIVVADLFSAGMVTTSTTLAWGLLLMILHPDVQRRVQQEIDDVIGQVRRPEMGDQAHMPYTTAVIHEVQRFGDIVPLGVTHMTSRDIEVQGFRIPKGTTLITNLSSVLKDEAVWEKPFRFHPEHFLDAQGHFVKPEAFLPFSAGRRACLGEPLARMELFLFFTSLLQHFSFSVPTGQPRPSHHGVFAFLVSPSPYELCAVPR
CYP2E1, sequence (P05181 whole entry): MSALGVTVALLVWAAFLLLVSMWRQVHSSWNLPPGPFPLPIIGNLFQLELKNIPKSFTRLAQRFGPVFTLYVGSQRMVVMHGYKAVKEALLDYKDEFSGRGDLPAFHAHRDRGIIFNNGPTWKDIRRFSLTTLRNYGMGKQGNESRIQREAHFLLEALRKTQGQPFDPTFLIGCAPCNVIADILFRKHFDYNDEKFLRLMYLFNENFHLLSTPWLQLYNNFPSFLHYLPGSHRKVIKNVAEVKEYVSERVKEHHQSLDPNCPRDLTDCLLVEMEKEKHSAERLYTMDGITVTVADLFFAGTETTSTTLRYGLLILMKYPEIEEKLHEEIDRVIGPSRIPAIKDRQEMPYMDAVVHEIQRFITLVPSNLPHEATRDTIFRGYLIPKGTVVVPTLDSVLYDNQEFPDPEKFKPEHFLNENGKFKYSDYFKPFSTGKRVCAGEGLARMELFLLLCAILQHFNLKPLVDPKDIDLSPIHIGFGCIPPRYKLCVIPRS

SMILES: Cc1cc(C)cc(OCC2CNC(=O)O2)c1 (stereo not shown) [metaxalone, 5-[(3,5-dimethylphenoxy)methyl]-2-oxazolidinone]
- % Turnover Mean (CYP2E1): −3.87%
- Inducer/Inhibitor (CYP3A4): +
- Specific Activity Mean ± SD (CYP3A4; Donor 2, Metaxalone 0.4 μM): 1.20 ± 0.109 pmol/min/million cells
- 6β-Hydroxytestosterone formation Adjusted Mean ± SD (CYP3A4; human): 0.116 ± 0.00524 µM
- Specific Activity Mean ± SD (CYP3A4; human): <0.905 ± 0.0213 pmol/min/million cells
- 6β-Hydroxytestosterone formation Adjusted Mean ± SD (CYP3A4; human, 4 h, 4 μM): <0.100 ± 0.000 µM
- Specific Activity Mean ± SD (CYP3A4; human, 48 h, 0.4 μM): <0.893 ± 0.000 pmol/min/million cells
- effect on CYP3A4 activity (CYP3A4; human, hepatocytes, 48 h): did not induce CYP3A4 activity
- induced CYP3A4 activity (CYP3A4; [1]): about 21%
- Mean Conc. (CYP2C8; 0.75 μM): 0.719 µM
- Mean Conc. (CYP2C8; 7.5 μM): 8.19 µM
- % Turnover Mean (CYP2C8; 0.75 μM): 6.78%
- % Turnover Mean (CYP2C8; 7.5 μM): 3.77%
- Inducer/Inhibitor (CYP2D6): −
- Percent of VC (CYP2D6; Donor 3, Metaxalone 0.4 μM): 98.8%
- Percent of VC (CYP2D6; Donor 3, Metaxalone 4 μM): 89.8%
- Specific Activity Mean ± SD (CYP2D6; Donor 3, Metaxalone 4 μM): 0.533 ± 0.0146 pmol/min/million cells
- CYP2D6 activity (CYP2D6; hepatocytes): below the lower limit of quantitation
- Percent of VC (CYP2D6; human, 48 h, 4 μM): 100%
- effect on CYP2D6 activity (CYP2D6; [1]): significantly reduced CYP2D6 activity
- % Turnover Mean (CYP2A6; 0.75 μM metaxalone, 5 pmol cyp): 0.14%
- [metaxalone] Mean (CYP2A6; 0.75 μM metaxalone, 5 pmol cyp): 0.790 µM
- % Turnover % (CYP2A6; 0.75 μM metaxalone, 5 pmol cyp): −4.1%
- % Turnover % (CYP2A6; [2]): 1.8% and 2.8%
- [metaxalone] (CYP2A6; [2]): 0.777 µM and 0.824 µM and 0.769 µM
- % Turnover Mean (CYP2A6; [3]): 0.91%
- [metaxalone] Mean (CYP2A6; [3]): 0.784 µM
- % Turnover % (CYP2A6; [3]): −5.7%
- % Turnover % (CYP2A6; [4]): 3.7% and 4.8%
- [metaxalone] (CYP2A6; [4]): 0.837 µM and 0.762 µM and 0.753 µM
- % Turnover Mean (CYP2A6; 7.5 μM metaxalone, 5 pmol cyp): 3.7%
- [metaxalone] Mean (CYP2A6; 7.5 μM metaxalone, 5 pmol cyp): 8.14 µM
- % Turnover % (CYP2A6; 7.5 μM metaxalone, 5 pmol cyp): −2.3%
- % Turnover % (CYP2A6; [5]): 9.0% and 4.3%
- [metaxalone] (CYP2A6; [5]): 7.69 µM and 8.08 µM and 8.64 µM
- % Turnover Mean (CYP2A6; 7.5 μM metaxalone, 20 pmol cyp): −1.8%
- [metaxalone] Mean (CYP2A6; 7.5 μM metaxalone, 20 pmol cyp): 8.59 µM
- % Turnover % (CYP2A6; [6]): −1.6% and 6.1% and −9.8%
- [metaxalone] (CYP2A6; [6]): 8.58 µM and 7.93 µM and 9.27 µM
- Substrate (CYP2A6; CYP isozyme 2A6, summary of studies): 0
